Experimental data as given in patent US8815833B2, “Stable amifostine liquid concentrate” (Seidose, LLC, priority 2006, dated 2014).
Like-named read-outs stand apart in the source and are kept apart here. Marks after values point to notes of the source that are not given here.

Tests used:
[1] = Merck Index, cited from earlier work
[2] = Approximate concentration of ionic species as function of pH according to the pKa values; type: physicochemical
Excerpt: There are four pKas for amifostine. The Merck Index lists them to be <2.0, 4.2, 9.0 and 11.7. The amino groups (2) and the phosphate group (2 pKa per group) can all be completely protonated. [Ref: Structure of Radio protective agent S-2(3-Aminoprpropylamino)ethylphosphorthioic acid (WR 2721) Jean Karle, Acta Cryst (1988) C44 135-138]. The usual form crystallized from solution is a double zwitterion with the phosphate completely dissociated (−2) and the amino groups fully protonated (+2). It is usually drawn with the amines in their free base form and the phosphate completely protonated but that is not how it exists in solution. So, the two pKa values from the double zwitterion are for the two amino functions ionizing (i.e., pKas 3 & 4). The first two pKas are for the phosphate which are perturbed by the two positive charges on the amino groups which pushes them lower than pKa1 and pKa2 for phosphoric acid. The following table describes the ionic nature of the compound as function of pH according to the pKa values reported in the Merck Index. The table also summarizes the approximate concentration of ionic species as function of pH:
At pH 9.0, 50% of the amifostine is present as the double zwitterion and 50% of amine 1 (primary amine) is present as the free base form making 50% of the amifostine have a net negative charge. At pH 10.0, only 10% of amifostine is present as a double zwitterion and the other 90% has a net negative charge; amine 1 is mainly in the free base form. […] Approximately 1% is present as the double zwitterion. More importantly, 17% of amifostine has both amines in the un-ionized form as free bases and this particular ionic species of the molecule carries about −2 charge. At this pH (11), it is observed that there is a significant improvement in the stability. […] At pH 13, over 95% of the amifostine is present with both amines in their free base forms with improved stability.

[3] = Storage stability of amifostine solutions by stability indicating HPLC method (% remaining); type: physicochemical
Protocol: As will be seen below in Example 1, a 250 mg/ml liquid concentrate was prepared at pH 9, and 200 mg/ml liquid concentrates were prepared at pH 10.5, 11.5, 12.5 and 13. The stability was monitored at 40° C., 25° C. and 5° C. by a stability indicating HPLC method using the following HPLC conditions:
Solutions of amifostine at 200 mg/ml or 250 mg/ml were prepared at the pHs shown in the table below and stored at the temperatures indicated for the times indicated. “% remaining” in the table below is determined by the HPLC method described earlier in the specification.

[4] = Hydrolysis of amifostine to free thiol metabolite as function of pH (stability evaluations); type: physicochemical
Excerpt: At pH 7.4, the intrinsic pH, amifostine has a net neutral charge as a double zwitterion with the phosphate completely dissociated (−2) and the amino groups fully protonated (+2). During stability evaluations carried out for the purposes of the present invention it was observed that the hydrolysis of amifostine to release free thiol metabolite is rapid at acidic pH and even at weakly acidic pH. On the other hand, the hydrolysis was almost 100-fold slower at pH 10 and above.

Q: Which results are given for `NCCCNCCSP(=O)(O)O` [amifostine, S-2(3-Aminoprpropylamino)ethylphosphorthioic acid]?
A: pKa ([1]; first pKa (phosphate)): < 2.0; pKa ([1]; fourth pKa (sec. amine, amine 2)): 11.7; pKa ([1]; second pKa (phosphate)): 4.2; pKa ([1]; third pKa (prim. amine, amine 1)): 9.0; Prim. amine (pKa 9.0) Protonated ([2]; pH 7): ~100%; Prim. amine (pKa 9.0) Unprotonated ([2]; pH 7): ~0%; Sec. amine (pKa 11.7) Protonated ([2]; pH 7): ~100%; Sec. amine (pKa 11.7) Unprotonated ([2]; pH 7): ~0%; Prim. amine (pKa 9.0) Protonated ([2]; pH 9): ~50%; Prim. amine (pKa 9.0) Unprotonated ([2]; pH 9): ~50%; Sec. amine (pKa 11.7) Protonated ([2]; pH 9): ~100%; Sec. amine (pKa 11.7) Unprotonated ([2]; pH 9): ~0%; amine 1 present as free base form, net negative charge ([2]; pH 9.0): 50%; present as the double zwitterion ([2]; pH 9.0): 50%; Prim. amine (pKa 9.0) Protonated ([2]; pH 10): ~10%; Prim. amine (pKa 9.0) Unprotonated ([2]; pH 10): ~90%; Sec. amine (pKa 11.7) Protonated ([2]; pH 10): ~100%; Sec. amine (pKa 11.7) Unprotonated ([2]; pH 10): ~0%; has a net negative charge (amine 1 free base) ([2]; pH 10.0): 90%; present as a double zwitterion ([2]; pH 10.0): 10%; Prim. amine (pKa 9.0) Protonated ([2]; pH 11): ~1%; Prim. amine (pKa 9.0) Unprotonated ([2]; pH 11): ~99%; Sec. amine (pKa 11.7) Protonated ([2]; pH 11): ~83%; Sec. amine (pKa 11.7) Unprotonated ([2]; pH 11): ~17%; both amines in the un-ionized form as free bases (about -2 charge) ([2]; pH 11.5 solution): 17%; present as the double zwitterion ([2]; pH 11.5 solution): Approximately 1%; Prim. amine (pKa 9.0) Protonated ([2]; pH 12): ~0.1%; Prim. amine (pKa 9.0) Unprotonated ([2]; pH 12): >99.9%; Sec. amine (pKa 11.7) Protonated ([2]; pH 12): ~33%; Sec. amine (pKa 11.7) Unprotonated ([2]; pH 12): ~67%; Prim. amine (pKa 9.0) Protonated ([2]; pH 13): ~0.01%; Prim. amine (pKa 9.0) Unprotonated ([2]; pH 13): 99.99%^; Sec. amine (pKa 11.7) Protonated ([2]; pH 13): <5%; Sec. amine (pKa 11.7) Unprotonated ([2]; pH 13): >95%; present with both amines in their free base forms ([2]; pH 13): over 95%; potency loss ([3]; 5° C., 180-day storage, pH 12.5 and 13 formulations): ≤ 3%; % remaining ([3]; pH 7.4, 200 mg/ml, 25° C., 7 days): 89%; % remaining ([3]; pH 7.4, 200 mg/ml, 25° C., 14 days): 78%; % remaining ([3]; pH 7.4, 200 mg/ml, 25° C., 25 days): 60%; % remaining ([3]; pH 7.4, 200 mg/ml, 25° C., 33 days): 52%; % remaining ([3]; pH 7.4, 200 mg/ml, 40° C., 2 days): 71%; % remaining ([3]; pH 7.4, 250 mg/ml, 40° C., 1 day): 84%; % remaining ([3]; pH 7.4, 250 mg/ml, 40° C., 2 days): 66%; % remaining ([3]; pH 7.4, 250 mg/ml, 40° C., 3 days): 57%; % remaining ([3]; pH 9.0, 250 mg/ml, 5° C., 90 days): 96%; % remaining ([3]; pH 9.0, 250 mg/ml, 5° C., 180 days): 91* %; % remaining ([3]; pH 9.0, 250 mg/ml, 25° C., 10 days): 83%; % remaining ([3]; pH 9.0, 250 mg/ml, 25° C., 25 days): 60%; % remaining ([3]; pH 9.0, 250 mg/ml, 40° C., 1 day): 83%; % remaining ([3]; pH 10.5, 200 mg/ml, 5° C., 90 days): 94%; % remaining ([3]; pH 10.5, 200 mg/ml, 5° C., 180 days): 90%; % remaining ([3]; pH 10.5, 200 mg/ml, 25° C., 10 days): 85%; % remaining ([3]; pH 10.5, 200 mg/ml, 25° C., 25 days): 62%; % remaining ([3]; pH 10.5, 200 mg/ml, 25° C., 35 days): 57%; % remaining ([3]; pH 10.5, 200 mg/ml, 25° C., 60 days): 39%; % remaining ([3]; pH 10.5, 200 mg/ml, 40° C., 1 day): 84%; % remaining ([3]; pH 10.5, 200 mg/ml, 40° C., 2 days): 75%; % remaining ([3]; pH 11.5, 200 mg/ml, 5° C., 90 days): 93%; % remaining ([3]; pH 11.5, 200 mg/ml, 5° C., 180 days): 92%; % remaining ([3]; pH 11.5, 200 mg/ml, 25° C., 10 days): 86%; % remaining ([3]; pH 11.5, 200 mg/ml, 25° C., 25 days): 64%; % remaining ([3]; pH 11.5, 200 mg/ml, 25° C., 60 days): 51%; % remaining ([3]; pH 11.5, 200 mg/ml, 40° C., 1 day): 90%; % remaining ([3]; pH 12.5, 200 mg/ml, 5° C., 90 days): 99%; % remaining ([3]; pH 12.5, 200 mg/ml, 5° C., 180 days): 97%; % remaining ([3]; pH 12.5, 200 mg/ml, 25° C., 10 days): 94%; % remaining ([3]; pH 12.5, 200 mg/ml, 25° C., 32 days): 86%; % remaining ([3]; pH 12.5, 200 mg/ml, 25° C., 60 days): 74%; % remaining ([3]; pH 12.5, 200 mg/ml, 40° C., 4 days): 77%; % remaining ([3]; pH 13.0, Batch #1, 200 mg/ml, 5° C., 90 days): 99%; % remaining ([3]; pH 13.0, Batch #1, 200 mg/ml, 5° C., 180 days): 98%; % remaining ([3]; pH 13.0, Batch #1, 200 mg/ml, 5° C., 270 days): 95%; % remaining ([3]; pH 13.0, Batch #1, 200 mg/ml, 25° C., 18 days): 96%; % remaining ([3]; pH 13.0, Batch #1, 200 mg/ml, 25° C., 36 days): 82%; % remaining ([3]; pH 13.0, Batch #1, 200 mg/ml, 25° C., 60 days): 74%; % remaining ([3]; pH 13.0, Batch #1, 200 mg/ml, 40° C., 4 days): 85-86%; % remaining ([3]; pH 13.0, Batch#2, 200 mg/ml, 5° C., 90 days): 100%; % remaining ([3]; pH 13.0, Batch#2, 200 mg/ml, 5° C., 180 days): 97%; % remaining ([3]; pH 13.0, Batch#2, 200 mg/ml, 5° C., 270 days): 95%; % remaining ([3]; pH 13.0, Batch#2, 200 mg/ml, 25° C., 18 days): 96%; % remaining ([3]; pH 13.0, Batch#2, 200 mg/ml, 25° C., 36 days): 82%; % remaining ([3]; pH 13.0, Batch#2, 200 mg/ml, 25° C., 90 days): 75%; % remaining ([3]; pH 13.0, batch #3, 200 mg/ml, 5° C., 90 days): 101%; % remaining ([3]; pH 13.0, batch #3, 200 mg/ml, 5° C., 180 days): 97%; % remaining ([3]; pH 13.0, batch #3, 200 mg/ml, 5° C., 270 days): 95%; % remaining ([3]; pH 13.0, batch #3, 200 mg/ml, 25° C., 18 days): 97%; % remaining ([3]; pH 13.0, batch #3, 200 mg/ml, 25° C., 36 days): 82%; % remaining ([3]; pH 13.0, batch #3, 200 mg/ml, 25° C., 90 days): 76%; hydrolysis to release free thiol metabolite ([4]; acidic pH and even weakly acidic pH): rapid; hydrolysis slower than at acidic / weakly acidic pH ([4]; pH 10 and above): ~100 fold
